Data set [1] is described as follows: Pharmacokinetic (PK) studies. The following applies: mouse, in vivo. Here is the method: FIG. 3. Pharmacokinetic (PK) data for S4105. The compound has a volume of distribution of 0.06 L/kg, which is essentially the blood volume of a mouse, implying that the compound may be sequestered in the plasma. […] The intraperitoneal (IP) dose was well absorbed. 8 hours after the IP dose of 20 mg/kg the plasma concentration for the three mice ranged from 75-200 μM. Even if the compound is 99.95% plasma protein bound, this would still give a free fraction of about 50 nM.
FIG. 4. PK data for ZNL-01-132. The compound has a long half-life in plasma of 5-6 hours. After IP dosing at 20 mg/kg high concentrations were achieved and 8 hours post dose the levels were approximately 2 μM.
PK studies were performed on compounds S4105 and ZNL-01-132.

The target in a further data set is T1, AmpC β-lactamase (Escherichia coli, UniProt P00811).
T1 construct: Shoichet lab (UCSF), gift
T1 sequence (P00811 20-377): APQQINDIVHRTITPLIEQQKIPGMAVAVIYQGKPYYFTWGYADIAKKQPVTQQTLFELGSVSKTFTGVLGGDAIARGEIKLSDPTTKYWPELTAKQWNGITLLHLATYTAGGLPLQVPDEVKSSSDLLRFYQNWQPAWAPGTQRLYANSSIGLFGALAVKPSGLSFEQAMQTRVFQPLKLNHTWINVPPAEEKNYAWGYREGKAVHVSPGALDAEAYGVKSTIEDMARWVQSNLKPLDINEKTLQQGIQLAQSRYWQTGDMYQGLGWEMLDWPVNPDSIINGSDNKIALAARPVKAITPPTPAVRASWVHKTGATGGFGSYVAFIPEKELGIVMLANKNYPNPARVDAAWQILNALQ
The data set is described as follows: AmpC beta-lactamase non-specific enzyme inhibition assay. In kind it is biochemical. The following applies: IC50/μM vs. AmpC. As to the method:
AmpC beta-lactamase assay. The AmpC β-lactamase was a kind gift from the Shoichet lab (UCSF). The inhibitor was serially diluted (two-fold dilution series from 100 μM) and pre-incubated with 10 nM enzyme in working buffer (50 mM potassium phosphate, pH 7.0) at room temperature for 5 min. Nitrocefin (100 μM, VWR) was added to the solution and carefully mixed. Absorbance of the final mixture was immediately monitored at 470 nm for 3 min.
For both AmpC and MDH assays, the final concentration of DMSO was 2% for all samples. All assays were repeated in the presence of 0.01% Triton X-100. IC50 values of 3-110-22 presented in Table 2 are representative data from two independent experiments; values for the other lead compounds were measured once for each enzymatic assay.

In data set [2] the test system is DENV. The data set is described as follows: PRNT plaque reduction assay. In kind it is cell-based. The following applies: Dengue virus; plaque reduction by 50%; virus not given. As to the method: For plaque reduction assays, DENV1, 2, 3, 4 were tested on BHK-21 cells, and ZIKV was tested on Vero cells. Vims inocula were diluted in EBSS to 2500 pfu/ml as the final concentration, and were pre-incubated with different concentrations of small molecule inhibitors (2% DMSO vol/vol final concentration) for 45 min at 37° C., 5% CO2. The mixture (200 μl, 500 pfu of virus) was then added to cells for 1 hour (37° C., 5% CO2) to allow infection, after which the inoculum was removed, and the cells were washed with 1×PBS to remove unbound virus and compound. Cells were overlaid with carboxylmethylcellulose and incubated at 37° C., 5% CO2 to allow the formation of plaques (4 days for DENV1, 2, 3, 4 and 2-3 days for ZIKV). The cells were fixed and plaques visualized by staining of the cell monolayers with crystal violet. Empirical analysis was performed to determine the PRNT50 value, defined as the inhibitor concentration needed to reduce plaque formation by 50%.

A short description of data set [3]: Cytotoxicity (CellTiter-Glo). In kind it is cell-based. The note with it: hamster, BHK21 cells, read-out: CC50/μM (toxicity). Here is the method:
The term “CC50” refers to the concentration of an antiviral agent that causes 50% loss of cell viability.
BHK21 cells (MEM with 2% FBS) were incubated with varying concentrations of inhibitor in a 96-well white plate for 24 hours at 37 degrees C. and 5% CO2. CellTiter-Glo (Promega) solution was used to measure viability following the manufacturer's instructions. Luminescence was measured using a Biotek Synergy plate reader. Data were plotted versus the log10 inhibitor concentration, and non-linear regression analysis (Graphpad Prism) was used to determine CC50 values, defined as the inhibitor concentration required to cause 50% loss of cell viability. The maximum concentration tested was 100 μM. Values presented in Table 1 are the average of two or more independent experiments.
In general terms: ATP-based viability assays read luminescence as a measure of living cells.

A further data set concerns the target His6-tagged DENV2 sE2 (Dengue virus type 2, UniProt P14340). Put plainly: AlphaScreen competition assay (GNF2-biotin probe vs. envelope protein). In kind it is binding, Dengue virus 2 (DENV2). The text has this:
Known DENV inhibitors to develop an AlphaScreen assay designed to identify compounds that compete for binding on envelop protein. The AlphaScreen is a bead-based proximity assay that permits measurement of biomolecular interactions of pico- to milli-molar affinities in microplate format. Following excitation of donor beads, energy is transferred to acceptor beads if analytes conjugated to donor and acceptor beads interact. […] We performed cross-titration experiments to optimize the molar concentrations of the probe (GNF2-biotin) and envelope glycoprotein for the assay. We also tested different orders of the addition of the assay components to achieve the best signal-to-noise ratio.
A general note: Bead proximity is the source of the signal in Alpha formats.

The subject of data set [4] is DENV. The data set is described as follows: Antiviral activity: viral infectivity assay (single-cycle viral yield). It counts as cell-based. The note with it: Dengue virus; concentration that reduces single-cycle viral yield by 10-fold. Here is the method: The term “IC90” refers to the concentration of an antiviral agent that reduces single-cycle viral yield by 10-fold.
For the viral infectivity assay, virus inocula were diluted in EBSS to achieve a multiplicity of infection (MOI) of 1, and were pre-incubated with the given small molecule at varying concentrations for 45 min at 37° C. The mixture was then added to cells for 1 hour at 37° C. to allow infection, after which the inoculum was removed and the cells were washed with 1×PBS to remove unbound virus and compound. Cells were overlaid with medium lacking inhibitor and incubated at 37° C. for 20-24 hours, corresponding to a single cycle of infection. Culture supernatants were harvested at this time, and the yield of infectious particles produced was quantified by plaque-forming assay. For initial antiviral screening of HTS “hits,” compounds were tested for activity at 3 and 10 μM. For IC90 value determination, viral yield (plaque-forming units per milliliter) was plotted versus the log of the inhibitor concentration, and non-linear regression analysis of the data (Graphpad Prism) was performed to determine the concentration at which viral yield is reduced 10-fold.

The test system of another data set is VSV-eGFP. Put plainly: VSV-eGFP counter screen. It counts as cell-based. (The purpose of a counterscreen is to sort out artefacts and off-target activity.)
Where [5] appears, read: TX, in the presence of 0.01% Triton X-100.

SMILES strings stand for the structures. pIC50: −log10 of the molar value. Like-named read-outs stand apart in the source and are kept apart here.

For orientation: Vd means the apparent volume that relates the amount in the body to the concentration in plasma or blood. High values mean wide distribution into tissue, low ones little distribution into tissue. What is called clearance is the rate of elimination divided by the concentration. A low value points to a low capacity for elimination. As usually defined, the half-life is how long it takes for the measured level to halve. A low value points to rapid decline. The term IC50 denotes the midpoint of a concentration-inhibition curve. One may read the EC50 as the concentration at which the effect is half-maximal. A lower EC50 goes with a more potent agent. Take `Cc1cc(C(C#N)c2ccc(Cl)cc2)c(Cl)cc1NC(=O)c1cc(I)cc(I)c1O` (stereo not drawn) [S4105]: the Vd in data set [1] amounted to 0.06 L/kg. Further, in data set [1] (ip), the “absorption of intraperitoneal (IP) dose” value is given as “well absorbed”. In data set [1] (ip, 20 mg/kg), this compound gave a concentration at 8 h of 75 to 200 µM. In data set [1] (iv), the clearance turned out to be 2.4 mL/h/kg and the half-life is 21 h. 0.3 µM corresponded to half-maximal inhibition at AmpC β-lactamase (No TX, without Triton X-100) (IC50). At AmpC β-lactamase (setting [5]), the IC50 was greater than 100 µM. The same compound displayed an EC50 with DENV [2] of 0.3 µM. Moreover, in data set [3], the CC50 at 24 h is roughly 50 µM.
For the compound `NC(=O)c1cccc(-c2cc(Nc3ccc(OC(F)(F)F)cc3)ncn2)c1` [GNF2, reference compound], at His6-tagged DENV2 sE2 (GNF2-biotin on donor beads, His6-tagged DENV2 sE2 on acceptor beads), the “competition of AlphaScreen signal” value was “competed away in a dose-dependent fashion”.
The term pIC50 denotes the IC50 on a negative log10 scale, so that one unit is a factor of ten. Broadly, the IC90 is the concentration at which the effect reaches the 90% level. Read a low IC90 as an effect from little substance. `Cc1cc(C(C#N)c2ccc(Cl)cc2)c(Cl)cc1NC(=O)c1ccccc1O` (stereo not drawn): the negative-log IC50 (pIC50) on His6-tagged DENV2 sE2 was 5.70. In the data set with DENV [4], this compound came in with an IC90 of 8 µM.
On His6-tagged DENV2 sE2, `O=C(Nc1ccc(Oc2ccc(Cl)cc2)c(Cl)c1)c1cc(I)cc(I)c1O` had a pIC50 of 6.10.
Consider `Cc1cc(C(C#N)c2ccc(Cl)cc2)c(Cl)cc1NC(=O)c1cc(I)cc(I)c1O` (stereo not drawn) [drawing 87], for which the pIC50 on His6-tagged DENV2 sE2 is 6.10. The compound also returned a concentration for an effect of 90% (IC90) in the data set with DENV [4] of 1 µM.
For the compound `O=C(Nc1ccc(Oc2ccc(Cl)cc2)c(Cl)c1)c1cc(F)cc(F)c1O` [ZNL-01-132], in data set [1], the half-life was 5 to 6 h. Besides, the concentration at 8 h in data set [1] (IP 20 mg/kg, 8 hours post dose, read-out: plasma concentration 8 hours after IP dose) is roughly 2 µM. In addition, the IC50 against AmpC β-lactamase (No TX, without Triton X-100) was 38 µM; on AmpC β-lactamase (setting [5]), greater than 100 µM. In the data set with DENV [2], this compound yielded an EC50 of 0.5 µM. In addition, on His6-tagged DENV2 sE2, the negative-log IC50 (pIC50) is 5.40. The “% Inhibition Vs. VSV-eGFP, 2.5 μM” value in the data set with VSV-eGFP (2.5 μM) is 80%. Besides, the “% Inhibition Vs. VSV-eGFP, 5 μM” value in the data set with VSV-eGFP (5 μM) is recorded as greater than 90%. Also, the CC50 at 24 h in data set [3] is 44 µM.

Source of the values: patent publication US20210230101A1, “COMPOUNDS FOR TREATING DENGUE VIRUS INFECTIONS AND OTHER INFECTIONS” (Dana-Farber Cancer Institute, Inc., priority 2018, published 2021).
